Reference: patent US12065436B2, “Cardiac sarcomere inhibitors” (Cytokinetics, Inc., priority 2018, dated 2024)

Biological target: bovine cardiac myofibrils (full-length cardiac myosin ATPase in the native sarcomere) (Bos taurus (Bovine), UniProt Q9BE39)
Experiment: Skinned bovine cardiac myofibril ATPase assay (PK/LDH-coupled)
Format: biochemical
Conditions: Ca2+ activating to 75% of maximal rate; for CDMF75 IC15: concentration giving 15% inhibition; for IC50: read-out: CDMF75 IC50
Summary of the method: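 Inhibition of steady-state ATPase read at 340 nm through a PK/LDH-coupled NADH system (0.5 mM NADH, 1.5 mM PEP). Detergent-skinned bovine cardiac myofibrils, 1 mg/mL, were tested at pH 6.8 in PIPES/MgCl2 with 50 μM ATP and calcium adjusted to give pCa50 or pCa75 activation.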

Chain of bovine cardiac myofibrils (full-length cardiac myosin ATPase in the native sarcomere) (Q9BE39 whole entry): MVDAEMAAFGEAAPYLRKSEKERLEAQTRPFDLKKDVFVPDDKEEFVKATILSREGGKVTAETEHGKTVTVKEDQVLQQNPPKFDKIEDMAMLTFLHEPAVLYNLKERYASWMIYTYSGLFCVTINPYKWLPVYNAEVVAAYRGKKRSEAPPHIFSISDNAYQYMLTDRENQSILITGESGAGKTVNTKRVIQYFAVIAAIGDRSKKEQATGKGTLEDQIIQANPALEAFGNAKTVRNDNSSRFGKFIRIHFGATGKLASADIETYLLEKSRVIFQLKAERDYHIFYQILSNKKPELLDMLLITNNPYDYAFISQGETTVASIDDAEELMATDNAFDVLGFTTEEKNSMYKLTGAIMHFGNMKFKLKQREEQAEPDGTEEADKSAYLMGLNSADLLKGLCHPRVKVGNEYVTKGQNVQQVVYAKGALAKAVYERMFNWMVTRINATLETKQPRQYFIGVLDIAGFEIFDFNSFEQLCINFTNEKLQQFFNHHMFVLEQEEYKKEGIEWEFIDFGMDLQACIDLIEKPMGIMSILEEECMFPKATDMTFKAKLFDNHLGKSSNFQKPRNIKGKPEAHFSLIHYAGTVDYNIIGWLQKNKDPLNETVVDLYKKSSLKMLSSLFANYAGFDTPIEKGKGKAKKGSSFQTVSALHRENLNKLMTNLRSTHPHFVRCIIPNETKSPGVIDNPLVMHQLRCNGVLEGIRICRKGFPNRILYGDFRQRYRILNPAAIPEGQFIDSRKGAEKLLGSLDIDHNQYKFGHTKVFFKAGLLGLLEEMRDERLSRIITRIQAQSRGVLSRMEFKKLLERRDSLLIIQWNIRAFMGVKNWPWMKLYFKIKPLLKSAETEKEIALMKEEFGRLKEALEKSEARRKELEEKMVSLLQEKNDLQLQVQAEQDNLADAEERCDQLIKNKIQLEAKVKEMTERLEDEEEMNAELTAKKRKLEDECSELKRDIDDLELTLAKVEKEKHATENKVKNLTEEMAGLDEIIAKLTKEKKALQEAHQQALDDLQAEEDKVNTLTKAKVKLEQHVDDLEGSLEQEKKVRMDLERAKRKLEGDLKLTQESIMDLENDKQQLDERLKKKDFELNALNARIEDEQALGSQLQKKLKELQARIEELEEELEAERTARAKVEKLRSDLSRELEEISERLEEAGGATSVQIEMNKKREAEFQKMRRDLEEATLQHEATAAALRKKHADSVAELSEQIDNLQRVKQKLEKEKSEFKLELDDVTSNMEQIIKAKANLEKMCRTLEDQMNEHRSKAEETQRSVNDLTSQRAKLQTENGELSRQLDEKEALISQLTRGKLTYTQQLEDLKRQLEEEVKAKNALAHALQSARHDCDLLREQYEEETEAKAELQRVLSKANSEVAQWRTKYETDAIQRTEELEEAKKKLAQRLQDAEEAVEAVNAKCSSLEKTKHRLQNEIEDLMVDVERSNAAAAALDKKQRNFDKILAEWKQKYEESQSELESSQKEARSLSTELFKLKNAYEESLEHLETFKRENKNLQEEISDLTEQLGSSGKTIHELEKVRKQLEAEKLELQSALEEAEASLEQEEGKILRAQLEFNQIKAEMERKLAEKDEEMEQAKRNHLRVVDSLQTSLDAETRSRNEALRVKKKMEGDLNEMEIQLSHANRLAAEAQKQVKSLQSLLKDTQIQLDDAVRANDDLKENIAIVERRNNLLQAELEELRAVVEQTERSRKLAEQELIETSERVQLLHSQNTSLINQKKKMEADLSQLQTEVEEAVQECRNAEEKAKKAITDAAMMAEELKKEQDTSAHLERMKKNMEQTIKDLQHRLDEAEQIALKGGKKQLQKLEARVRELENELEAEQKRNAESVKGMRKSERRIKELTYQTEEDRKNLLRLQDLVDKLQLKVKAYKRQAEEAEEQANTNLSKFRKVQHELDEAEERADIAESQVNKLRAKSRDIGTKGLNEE
Chain of bovine cardiac myofibrils (full-length cardiac myosin ATPase in the native sarcomere) (P85100 whole entry partner): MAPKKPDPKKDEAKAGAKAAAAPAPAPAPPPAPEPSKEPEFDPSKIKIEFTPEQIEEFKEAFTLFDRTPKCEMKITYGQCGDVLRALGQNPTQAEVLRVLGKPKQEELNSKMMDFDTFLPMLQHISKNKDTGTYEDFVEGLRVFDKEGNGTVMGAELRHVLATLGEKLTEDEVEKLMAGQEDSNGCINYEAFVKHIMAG
Chain of bovine cardiac myofibrils (full-length cardiac myosin ATPase in the native sarcomere) (Q3SZE5 whole entry partner): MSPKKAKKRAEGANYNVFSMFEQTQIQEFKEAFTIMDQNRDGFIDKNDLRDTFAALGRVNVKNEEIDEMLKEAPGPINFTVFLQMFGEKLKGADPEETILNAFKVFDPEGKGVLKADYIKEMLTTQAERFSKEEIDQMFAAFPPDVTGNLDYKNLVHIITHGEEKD

| SMILES | CDMF75 IC15 [µM] | IC50 [µM] |
| --- | --- | --- |
| Cc1noc(-c2ccc3c(c2)CC[C@H]3NC(=O)c2cnn(C)c2)n1 [Compound 263, (R)-1-methyl-N-(5-(3-methyl-1,2,4-oxadiazol-5-yl)-2,3-dihydro-1H-inden-1-yl)-1H-pyrazole-4-carboxamide] | 2.8 | 10.5 |
| Cc1noc(-c2ccc3c(c2)CC[C@H]3NC(=O)c2cnn(C)c2C)n1 [Compound 264, (R)-1,5-dimethyl-N-(5-(3-methyl-1,2,4-oxadiazol-5-yl)-2,3-dihydro-1H-inden-1-yl)-1H-pyrazole-4-carboxamide] | 1.8 | 6.6 |
| [2H]C([2H])([2H])c1nc(-c2ccc3c(c2)OC[C@H]3NC(=O)c2cnn(C)c2)no1 [Compound 265, (S)-1-methyl-N-(6-(5-(methyl-d3)-1,2,4-oxadiazol-3-yl)-2,3-dihydrobenzofuran-3-yl)-1H-pyrazole-4-carboxamide] | 1.0 | 3.4 |
| [2H]C([2H])([2H])c1nc(-c2ccc3c(c2)OC[C@H]3NC(=O)c2cc(C)nn2C)no1 [Compound 266, (S)-1,3-dimethyl-N-(6-(5-(methyl-d3)-1,2,4-oxadiazol-3-yl)-2,3-dihydrobenzofuran-3-yl)-1H-pyrazole-5-carboxamide] | 0.9 | 2.7 |
| [2H]C([2H])([2H])c1nc(-c2ccc3c(c2)OC[C@H]3NC(=O)c2cnc(C)o2)no1 [Compound 267, (S)-2-methyl-N-(6-(5-(methyl-d3)-1,2,4-oxadiazol-3-yl)-2,3-dihydrobenzofuran-3-yl)oxazole-5-carboxamide] | 1.2 | 4.4 |
| [2H]C([2H])([2H])c1nc(-c2ccc3c(c2)OC[C@H]3NC(=O)c2oc(C)nc2C)no1 [Compound 268, (S)-2,4-dimethyl-N-(6-(5-(methyl-d3)-1,2,4-oxadiazol-3-yl)-2,3-dihydrobenzofuran-3-yl)oxazole-5-carboxamide] | 1.9 | 5.1 |
| [2H]C([2H])([2H])c1nc(-c2ccc3c(c2)OC[C@H]3NC(=O)c2cnn(C)c2C)no1 [Compound 269, (S)-1,5-dimethyl-N-(6-(5-(methyl-d3)-1,2,4-oxadiazol-3-yl)-2,3-dihydrobenzofuran-3-yl)-1H-pyrazole-4-carboxamide] | 1.1 | 3.5 |
| [2H]C([2H])([2H])c1nc(-c2ccc3c(c2)OC[C@H]3NC(=O)c2cn(C)nc2C)no1 [Compound 270, (S)-1,3-dimethyl-N-(6-(5-(methyl-d3)-1,2,4-oxadiazol-3-yl)-2,3-dihydrobenzofuran-3-yl)-1H-pyrazole-4-carboxamide] | 0.9 | 3.1 |
| [2H]C([2H])([2H])c1nc(-c2ccc3c(c2)OC[C@H]3NC(=O)c2nnn(C)n2)no1 [Compound 271, (S)-2-methyl-N-(6-(5-(methyl-d3)-1,2,4-oxadiazol-3-yl)-2,3-dihydrobenzofuran-3-yl)-2H-tetrazole-5-carboxamide] | 4.3 | 17.1 |
| [2H]C([2H])([2H])c1noc(-c2ccc3c(c2)CC[C@H]3NC(=O)c2nnn(C)n2)n1 [Compound 272, (R)-2-methyl-N-(5-(3-(methyl-d3)-1,2,4-oxadiazol-5-yl)-2,3-dihydro-1H-inden-1-yl)-2H-tetrazole-5-carboxamide] | 1.2 | 4.3 |
| [2H]C([2H])([2H])c1noc(-c2ccc3c(c2)CC[C@H]3NC(=O)c2ccnn2C)n1 [Compound 273, (R)-1-methyl-N-(5-(3-(methyl-d3)-1,2,4-oxadiazol-5-yl)-2,3-dihydro-1H-inden-1-yl)-1H-pyrazole-5-carboxamide] | 0.7 | 2.4 |
| [2H]C([2H])([2H])c1noc(-c2ccc3c(c2)CC[C@H]3NC(=O)c2cnn(C)c2)n1 [Compound 274, (R)-1-methyl-N-(5-(3-(methyl-d3)-1,2,4-oxadiazol-5-yl)-2,3-dihydro-1H-inden-1-yl)-1H-pyrazole-4-carboxamide] | 4.0 | 15 |
| [2H]C([2H])([2H])c1noc(-c2ccc3c(c2)CC[C@H]3NC(=O)c2oncc2C)n1 [Compound 275, (R)-4-methyl-N-(5-(3-(methyl-d3)-1,2,4-oxadiazol-5-yl)-2,3-dihydro-1H-inden-1-yl)isoxazole-5-carboxamide] | 0.8 | 2.9 |
| Cn1cc(C(=O)N[C@@H]2CCc3cc(-c4nc(C(F)F)no4)ccc32)cn1 [Compound 276, (R)-N-(5-(3-(difluoromethyl)-1,2,4-oxadiazol-5-yl)-2,3-dihydro-1H-inden-1-yl)-1-methyl-1H-pyrazole-4-carboxamide] | 2.6 | 10.1 |
| Cc1c(C(=O)N[C@@H]2CCc3cc(-c4nc(C(F)F)no4)ccc32)cnn1C [Compound 277, (R)-N-(5-(3-(difluoromethyl)-1,2,4-oxadiazol-5-yl)-2,3-dihydro-1H-inden-1-yl)-1,5-dimethyl-1H-pyrazole-4-carboxamide] | 1.4 | 5.4 |
| O=C(N[C@@H]1CCc2cc(-c3noc(C(F)F)n3)ccc21)OC1CCC1 [Compound 281, cyclobutyl (R)-(5-(5-(difluoromethyl)-1,2,4-oxadiazol-3-yl)-2,3-dihydro-1H-inden-1-yl)carbamate] | 0.9 | > 39.2 |
| O=C(N[C@@H]1CCc2cc(-c3noc(C(F)F)n3)ccc21)C1CCCC1 [Compound 287, (R)-N-(5-(5-(difluoromethyl)-1,2,4-oxadiazol-3-yl)-2,3-dihydro-1H-inden-1-yl)cyclopentanecarboxamide] | 39.2 | > 39.2 |
| O=C(N[C@@H]1CCc2cc(-c3noc(C(F)F)n3)ccc21)OC1CNC1 [Compound 291, azetidin-3-yl (R)-(5-(5-(difluoromethyl)-1,2,4-oxadiazol-3-yl)-2,3-dihydro-1H-inden-1-yl)carbamate] | 17.3 | > 39.2 |
| O=C(N[C@@H]1CCc2cc(-c3noc(C(F)F)n3)ccc21)C1CCCO1 (stereo partly drawn) [Compound 293, N-((R)-5-(5-(difluoromethyl)-1,2,4-oxadiazol-3-yl)-2,3-dihydro-1H-inden-1-yl)tetrahydrofuran-2-carboxamide] | 20.4 | > 39.2 |

Results, then the molecule that gave them:

| CDMF75 IC15 [µM] | IC50 [µM] | SMILES |
| --- | --- | --- |
| 1.3 | 5.2 | CCOC(=O)N[C@@H]1CCc2cc(-c3noc(C(F)F)n3)ccc21 [Compound 278, ethyl (R)-(5-(5-(difluoromethyl)-1,2,4-oxadiazol-3-yl)-2,3-dihydro-1H-inden-1-yl)carbamate] |
| 22.4 | > 39.2 | CC(C)OC(=O)N[C@@H]1CCc2cc(-c3noc(C(F)F)n3)ccc21 [Compound 279, isopropyl (R)-(5-(5-(difluoromethyl)-1,2,4-oxadiazol-3-yl)-2,3-dihydro-1H-inden-1-yl)carbamate] |
| 0.7 | 2.7 | CC(C)COC(=O)N[C@@H]1CCc2cc(-c3noc(C(F)F)n3)ccc21 [Compound 280, isobutyl (R)-(5-(5-(difluoromethyl)-1,2,4-oxadiazol-3-yl)-2,3-dihydro-1H-inden-1-yl)carbamate] |
| 0.5 | 1.9 | COC(=O)N[C@@H]1CCc2cc(-c3noc(C(F)F)n3)ccc21 [Compound 282, methyl (R)-(5-(5-(difluoromethyl)-1,2,4-oxadiazol-3-yl)-2,3-dihydro-1H-inden-1-yl)carbamate] |
| 9.6 | > 39.2 | CCC(=O)N[C@@H]1CCc2cc(-c3noc(C(F)F)n3)ccc21 [Compound 283, (R)-N-(5-(5-(difluoromethyl)-1,2,4-oxadiazol-3-yl)-2,3-dihydro-1H-inden-1-yl)propionamide] |
| 38.5 | > 39.2 | CC(C)C(=O)N[C@@H]1CCc2cc(-c3noc(C(F)F)n3)ccc21 [Compound 284, (R)-N-(5-(5-(difluoromethyl)-1,2,4-oxadiazol-3-yl)-2,3-dihydro-1H-inden-1-yl)isobutyramide] |
| 9.3 | > 39.2 | COCC(=O)N[C@@H]1CCc2cc(-c3noc(C(F)F)n3)ccc21 [Compound 285, (R)-N-(5-(5-(difluoromethyl)-1,2,4-oxadiazol-3-yl)-2,3-dihydro-1H-inden-1-yl)-2-methoxyacetamide] |
| 2.1 | 10.2 | CC(=O)N[C@@H]1CCc2cc(-c3noc(C(F)F)n3)ccc21 [Compound 286, (R)-N-(5-(5-(difluoromethyl)-1,2,4-oxadiazol-3-yl)-2,3-dihydro-1H-inden-1-yl)acetamide] |
| 10.6 | > 39.2 | O=C(N[C@@H]1CCc2cc(-c3noc(C(F)F)n3)ccc21)C1COC1 [Compound 288, (R)-N-(5-(5-(difluoromethyl)-1,2,4-oxadiazol-3-yl)-2,3-dihydro-1H-inden-1-yl)oxetane-3-carboxamide] |
| 39.2 | > 39.2 | O=C(NC1CC1)N[C@@H]1CCc2cc(-c3noc(C(F)F)n3)ccc21 [Compound 289, (R)-1-cyclopropyl-3-(5-(5-(difluoromethyl)-1,2,4-oxadiazol-3-yl)-2,3-dihydro-1H-inden-1-yl)urea] |
| 39.2 | > 39.2 | CC(C)(O)C(=O)N[C@@H]1CCc2cc(-c3noc(C(F)F)n3)ccc21 [Compound 290, (R)-N-(5-(5-(difluoromethyl)-1,2,4-oxadiazol-3-yl)-2,3-dihydro-1H-inden-1-yl)-2-hydroxy-2-methylpropanamide] |
| 39.2 | > 39.2 | CC(C)NC(=O)N[C@@H]1CCc2cc(-c3noc(C(F)F)n3)ccc21 [Compound 292, (R)-1-(5-(5-(difluoromethyl)-1,2,4-oxadiazol-3-yl)-2,3-dihydro-1H-inden-1-yl)-3-isopropylurea] |
